Assays:
[1] = Cytotoxicity against human A549 cells assessed as growth inhibition after 48 hrs by SRB assay; assay type: functional; settings: A549, 48 h; for CC50: read-out: LD50 (the source's name)
[2] = Cytotoxicity against human NCI-H226 cells assessed as growth inhibition after 48 hrs by SRB assay; assay type: functional; settings: NCI-H226, 48 h; for CC50: read-out: LD50 (the source's name)
[3] = Cytotoxicity against human NCI-H522 cells assessed as growth inhibition after 48 hrs by SRB assay; assay type: functional; settings: NCI-H522, 48 h; for CC50: read-out: LD50 (the source's name)
[4] = Cytotoxicity against human COLO205 cells assessed as growth inhibition after 48 hrs by SRB assay; assay type: functional; settings: COLO 205, 48 h; for CC50: read-out: LD50 (the source's name)
[5] = Cytotoxicity against human HCC2998 cells assessed as growth inhibition after 48 hrs by SRB assay; assay type: functional; settings: HCC 2998, 48 h; for CC50: read-out: LD50 (the source's name)
[6] = Cytotoxicity against human HCT116 cells assessed as growth inhibition after 48 hrs by SRB assay; assay type: functional; settings: HCT-116, 48 h; for CC50: read-out: LD50 (the source's name)
[7] = Cytotoxicity against human SF268 cells assessed as growth inhibition after 48 hrs by SRB assay; assay type: functional; settings: SF-268, 48 h; for CC50: read-out: LD50 (the source's name)
[8] = Cytotoxicity against human SF295 cells assessed as growth inhibition after 48 hrs by SRB assay; assay type: functional; settings: SF-295, 48 h; for CC50: read-out: LD50 (the source's name)
[9] = Cytotoxicity against human SNB75 cells assessed as growth inhibition after 48 hrs by SRB assay; assay type: functional; settings: SNB-75, 48 h; for CC50: read-out: LD50 (the source's name)
[10] = Cytotoxicity against human U251 cells assessed as growth inhibition after 48 hrs by SRB assay; assay type: functional; settings: U-251, 48 h; for CC50: read-out: LD50 (the source's name)
[11] = Cytotoxicity against human SKOV3 cells assessed as growth inhibition after 48 hrs by SRB assay; assay type: functional; settings: SK-OV-3, 48 h; for CC50: read-out: LD50 (the source's name)
[12] = Cytotoxicity against human RXF393 cells assessed as growth inhibition after 48 hrs by SRB assay; assay type: functional; settings: RXF 393, 48 h; for CC50: read-out: LD50 (the source's name)
[13] = Cytotoxicity against human SN12C cells assessed as growth inhibition after 48 hrs by SRB assay; assay type: functional; settings: for CC50: read-out: LD50 (the source's name)
[14] = Cytotoxicity against human T47D cells assessed as growth inhibition after 48 hrs by SRB assay; assay type: functional; settings: for CC50: read-out: LD50 (the source's name)
[15] = Cytotoxicity against human EKVX cells assessed as assessed as growth inhibition at 10^-5 M after 48 hrs by SRB assay relative to control; assay type: functional; settings: read-out: GI
[16] = Cytotoxicity against human NCI-H522 cells assessed as assessed as growth inhibition at 10^-5 M after 48 hrs by SRB assay relative to control; assay type: functional; settings: NCI-H522, 48 h, read-out: GI
[17] = Cytotoxicity against human HCC2998 cells assessed as assessed as growth inhibition at 10^-5 M after 48 hrs by SRB assay relative to control; assay type: functional; settings: HCC 2998, 48 h, read-out: GI
[18] = Cytotoxicity against human HCT116 cells assessed as assessed as growth inhibition at 10^-5 M after 48 hrs by SRB assay relative to control; assay type: functional; settings: HCT-116, 48 h, read-out: GI
[19] = Cytotoxicity against human HCT15 cells assessed as assessed as growth inhibition at 10^-5 M after 48 hrs by SRB assay relative to control; assay type: functional; settings: HCT-15, 48 h, read-out: GI
[20] = Cytotoxicity against human HT-29 cells assessed as assessed as growth inhibition at 10^-5 M after 48 hrs by SRB assay relative to control; assay type: functional; settings: HT-29, 48 h, read-out: GI
[21] = Cytotoxicity against human KM12 cells assessed as assessed as growth inhibition at 10^-5 M after 48 hrs by SRB assay relative to control; assay type: functional; settings: KM12, 48 h, read-out: GI
[22] = Cytotoxicity against human SF295 cells assessed as assessed as growth inhibition at 10^-5 M after 48 hrs by SRB assay relative to control; assay type: functional; settings: SF-295, 48 h, read-out: GI
[23] = Cytotoxicity against human LOXIMVI cells assessed as assessed as growth inhibition at 10^-5 M after 48 hrs by SRB assay relative to control; assay type: functional; settings: LOX IMVI, read-out: GI
[24] = Cytotoxicity against human M14 cells assessed as assessed as growth inhibition at 10^-5 M after 48 hrs by SRB assay relative to control; assay type: functional; settings: M14, 48 h, read-out: GI
[25] = Cytotoxicity against human MDA-MB-435 cells assessed as assessed as growth inhibition at 10^-5 M after 48 hrs by SRB assay relative to control; assay type: functional; settings: MDA-MB-435, 48 h, read-out: GI
[26] = Cytotoxicity against human SK-MEL-5 cells assessed as assessed as growth inhibition at 10^-5 M after 48 hrs by SRB assay relative to control; assay type: functional; settings: SK-MEL-5, 48 h, read-out: GI
[27] = Cytotoxicity against human IGROV1 cells assessed as assessed as growth inhibition at 10^-5 M after 48 hrs by SRB assay relative to control; assay type: functional; settings: IGROV-1, 48 h, read-out: GI
[28] = Cytotoxicity against human 786-0 cells assessed as assessed as growth inhibition at 10^-5 M after 48 hrs by SRB assay relative to control; assay type: functional; settings: 786-0, 48 h, read-out: GI
[29] = Cytotoxicity against human ACHN cells assessed as assessed as growth inhibition at 10^-5 M after 48 hrs by SRB assay relative to control; assay type: functional; settings: read-out: GI
[30] = Cytotoxicity against human Caki1 cells assessed as assessed as growth inhibition at 10^-5 M after 48 hrs by SRB assay relative to control; assay type: functional; settings: CAKI-1, 48 h, read-out: GI
[31] = Cytotoxicity against human UO31 cells assessed as assessed as growth inhibition at 10^-5 M after 48 hrs by SRB assay relative to control; assay type: functional; settings: UO-31, 48 h, read-out: GI
[32] = Cytotoxicity against human MCF7 cells assessed as assessed as growth inhibition at 10^-5 M after 48 hrs by SRB assay relative to control; assay type: functional; settings: MCF7, 48 h, read-out: GI
[33] = Cytotoxicity against human Hs 578T cells assessed as assessed as growth inhibition at 10^-5 M after 48 hrs by SRB assay relative to control; assay type: functional; settings: read-out: GI
Mus musculus = species: Mus musculus; assay: Genotoxicity in mouse EAC cells at 250 uM after 24 hrs by micronucleus assay (reference value: 3.5 +/- 0.30%); assay type: toxicity, cell-based; settings: ehrlich

O=C1Cc2cc(CCn3cncn3)c(Cl)cc2N1
GI50 [1]: 1650 nM | TGI [1]: > 1000 nM | CC50 [1]: > 1000 nM | GI50 [2]: 1000 nM | TGI [2]: > 1000 nM | CC50 [2]: > 1000 nM | GI50 [3]: 5290 nM | TGI [3]: > 1000 nM | CC50 [3]: > 1000 nM | GI50 [4]: 2330 nM | TGI [4]: > 1000 nM | CC50 [4]: > 1000 nM | GI50 [5]: 1000 nM | TGI [5]: > 1000 nM | CC50 [5]: > 1000 nM | GI50 [6]: 3200 nM | TGI [6]: > 1000 nM | CC50 [6]: > 1000 nM | GI50 [7]: 5960 nM | TGI [7]: > 1000 nM | CC50 [7]: > 1000 nM | GI50 [8]: 3710 nM | TGI [8]: > 1000 nM | CC50 [8]: > 1000 nM | GI50 [9]: 1320 nM | TGI [9]: > 1000 nM | CC50 [9]: > 1000 nM | GI50 [10]: 1450 nM | TGI [10]: > 1000 nM | CC50 [10]: > 1000 nM | GI50 [11]: 3650 nM | TGI [11]: > 1000 nM | CC50 [11]: > 1000 nM | GI50 [12]: 7480 nM | TGI [12]: > 1000 nM | CC50 [12]: > 1000 nM | GI50 [13]: 1000 nM | TGI [13]: > 1000 nM | CC50 [13]: > 1000 nM | GI50 [14]: 1000 nM | TGI [14]: > 1000 nM | CC50 [14]: > 1000 nM | inhibition of growth at 10 µM [15]: 70.5% | inhibition of growth at 10 µM [16]: 67.2% | inhibition of growth at 10 µM [17]: 24.9% | inhibition of growth at 10 µM [18]: 21% | inhibition of growth at 10 µM [19]: 45.4% | inhibition of growth at 10 µM [20]: 2.85% | inhibition of growth at 10 µM [21]: 64% | inhibition of growth at 10 µM [22]: 30.7% | inhibition of growth at 10 µM [23]: 19% | inhibition of growth at 10 µM [24]: 76% | inhibition of growth at 10 µM [25]: 65.6% | inhibition of growth at 10 µM [26]: 59.9% | inhibition of growth at 10 µM [27]: 15.3% | inhibition of growth at 10 µM [28]: 5.34% | inhibition of growth at 10 µM [29]: 25.4% | inhibition of growth at 10 µM [30]: 40% | inhibition of growth at 10 µM [31]: 34% | inhibition of growth at 10 µM [32]: 71% | inhibition of growth at 10 µM [33]: 71.4% | Activity (Mus musculus): 3.5%

O=C1Cc2cc(CCn3ccnc3)c(Cl)cc2N1
GI50 [1]: 7630 nM | TGI [1]: > 1000 nM | CC50 [1]: > 1000 nM | GI50 [2]: 1000 nM | TGI [2]: > 1000 nM | CC50 [2]: > 1000 nM | GI50 [3]: 4740 nM | TGI [3]: 4790 nM | CC50 [3]: > 1000 nM | GI50 [4]: 1510 nM | TGI [4]: > 1000 nM | CC50 [4]: > 1000 nM | GI50 [5]: 3220 nM | TGI [5]: > 1000 nM | CC50 [5]: > 1000 nM | GI50 [6]: 1310 nM | TGI [6]: > 1000 nM | CC50 [6]: > 1000 nM | GI50 [7]: 1210 nM | TGI [7]: > 1000 nM | CC50 [7]: > 1000 nM | GI50 [8]: 7870 nM | TGI [8]: > 1000 nM | CC50 [8]: > 1000 nM | GI50 [9]: 2160 nM | TGI [9]: > 1000 nM | CC50 [9]: > 1000 nM | GI50 [10]: 8240 nM | TGI [10]: > 1000 nM | CC50 [10]: > 1000 nM | GI50 [11]: 1810 nM | TGI [11]: > 1000 nM | CC50 [11]: > 1000 nM | GI50 [12]: 6280 nM | TGI [12]: > 1000 nM | CC50 [12]: > 1000 nM | GI50 [13]: 1650 nM | TGI [13]: > 1000 nM | CC50 [13]: > 1000 nM | GI50 [14]: 7560 nM | TGI [14]: > 1000 nM | CC50 [14]: > 1000 nM | inhibition of growth at 10 µM [15]: 72.7% | inhibition of growth at 10 µM [16]: 55.2% | inhibition of growth at 10 µM [17]: 28.5% | inhibition of growth at 10 µM [18]: 28% | inhibition of growth at 10 µM [19]: 32.8% | inhibition of growth at 10 µM [20]: 1.22% | inhibition of growth at 10 µM [21]: 67.8% | inhibition of growth at 10 µM [22]: 36.6% | inhibition of growth at 10 µM [23]: 26.4% | inhibition of growth at 10 µM [24]: 76.3% | inhibition of growth at 10 µM [25]: 72% | inhibition of growth at 10 µM [26]: 67.8% | inhibition of growth at 10 µM [27]: 13.3% | inhibition of growth at 10 µM [28]: 10.6% | inhibition of growth at 10 µM [29]: 21.7% | inhibition of growth at 10 µM [30]: 36.3% | inhibition of growth at 10 µM [31]: 39.3% | inhibition of growth at 10 µM [32]: 77.1% | inhibition of growth at 10 µM [33]: 68.9% | Activity (Mus musculus): 2.83%
